Source: US9809623B2, “α4β7 peptide monomer and dimer antagonists” (Protagonist Therapeutics, Inc., priority 2014, dated 2017)
Read-outs that look alike come from different tables or passages of the source. Numbered stars: 1 amine (or outer) side, 2 acyl side, 3 side chain; on linkers, the order of the positions; unused ones are H or OH. Bridge positions count the residues as written; N and C are the ends. Square brackets hold non-standard residues; d marks the D form. Peptide text beside a SMILES is read from it. I, II: the chains in the order shown. ξ: configuration not given here. Phe(4-COOH) = N[C@@H](Cc1ccc(C(=O)O)cc1)C(=O)O; Phe(4-tBu) = CC(C)(C)c1ccc(C[C@H](N)C(=O)O)cc1; 1Nal = N[C@@H](Cc1cccc2ccccc12)C(=O)O; Diglycolyl = O=C(COCC(=O)[*:2])[*:1]; NMeR = CN[C@@H](CCCNC(=N)N)C(=O)O; β3hE = N[C@@H](CCC(=O)O)CC(=O)O; Thr(3ξ) = CC(O)[C@H](N)C(=O)O; NMeK = CN[C@@H](CCCCN)C(=O)O; Pen = CC(C)(S)[C@H](N)C(=O)O; dNMeK = CN[C@H](CCCCN)C(=O)O

What was measured:
α4β7 = α4β7 (Homo sapiens, UniProt P13612+P26010); assay: PBMC Memory T Cell Adhesion Assay, adhesion to MAdCAM-1; format: cell-based
Procedure: Fresh CD4+/CD45RO+ memory T cells were isolated from human peripheral blood mononuclear cell (PBMC) donors by Aragen Bioscience Inc. (Morgan Hill, Calif.). The assay plate was prepared using IgG Fc capture antibody (donkey anti human) immobilized at 500 ng/well in 50 mM sodium bicarbonate buffer, pH 9.5, ON, 4C onto a Greiner Fluotrac plate (100 ul per well). The plate was rinsed two time with Blocking Buffer (25 mM Tris HCl, pH7.5, 150 mM NaCl, 1.5% BSA, 0.05% Tween), and blocked with Blocking Buffer for 2 hours at 37 C or 5 hours at RT using 200 ul per well. The Blocking Buffer was removed and either MAdCAM-1 or VCAM-1 at 400 ng/well in Blocking Buffer was added and the plate incubated overnight at 4C (100 ul per well). The plate was washed two times with Blocking Buffer, and rinsed once with 200 ul Binding Media (DMEM phenol red free, 10 mM HEPES, 1×Na pyruvate, 1× Glutamine, and supplemented with 1 mM MnCl2 prior to use). To prepare cells, approximately 25 million CD4+/CD45RO+ memory T cells were counted by trypan blue exclusion using a haemocytometer to determine viability and cell count. The cells were transferred to a 50 ml conical tube, and centrifuged at 1200 rpm for 10 minute. The media was aspirated and the cell pellet resuspended in 15 ml Binding Media. The cells were centrifuged again and resuspended in the appropriate amount of Binding Media to be used for assays (50 ul of cells per well at 2× the final density). To each well, and equal volume (50 ul) of test compound was added and the plate was incubated for 1.5 hours at 37 C, 5% CO2. Each well was rinsed 3× with 150 ul per well of Binding Media. […] The plate was incubated at 37 C, 5% CO2, for 45 minutes. The plate was protected from light by using black adhesive seals. Fluorescence intensity was measured using a Molecular Devices Gemini EM Fluorescent Plate Reader (Ex 485/Em530, Bottom Read, Reading Sensitivity=20). IC50 curves are generated using Graph Pad Prism and the curves analyzed using analyzed using a non-linear regression (four parameters) algorithm. The log (concentration) versus RFU (Ex485/Em530) was plotted to determine IC50 values.

[1] = Simulated Intestinal Fluid (SIF) Stability Assay; format: in vitro ADME, porcine; settings: for half-life at 22 μM: pig, pH 6.5, Table 3-B
In short: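 Intestinal stability: percent peptide remaining over time, by LC-MS/MS peak-area ratio to internal standard, fitted to first-order decay for half-life. Conditions: 22 μM peptide, 1% pancreatin in pH 6.5 blank FASSIF, 37 °C.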

[2] = Table 3-B, range classes, read-out: PBMC IC50
[3] = simulated intestinal fluid (SIF) with 1% porcine pancreatin, > means experiment was stopped at that time and half life was not reached, read-out: Stabilty SIF t1/2
[4] = simulated intestinal fluid (SIF) with 1% porcine pancreatin, alone or in parentheses after >360, read-out: Stabilty SIF t1/2, in hr (converted)

α4β7, sequence (P13612 34-1032): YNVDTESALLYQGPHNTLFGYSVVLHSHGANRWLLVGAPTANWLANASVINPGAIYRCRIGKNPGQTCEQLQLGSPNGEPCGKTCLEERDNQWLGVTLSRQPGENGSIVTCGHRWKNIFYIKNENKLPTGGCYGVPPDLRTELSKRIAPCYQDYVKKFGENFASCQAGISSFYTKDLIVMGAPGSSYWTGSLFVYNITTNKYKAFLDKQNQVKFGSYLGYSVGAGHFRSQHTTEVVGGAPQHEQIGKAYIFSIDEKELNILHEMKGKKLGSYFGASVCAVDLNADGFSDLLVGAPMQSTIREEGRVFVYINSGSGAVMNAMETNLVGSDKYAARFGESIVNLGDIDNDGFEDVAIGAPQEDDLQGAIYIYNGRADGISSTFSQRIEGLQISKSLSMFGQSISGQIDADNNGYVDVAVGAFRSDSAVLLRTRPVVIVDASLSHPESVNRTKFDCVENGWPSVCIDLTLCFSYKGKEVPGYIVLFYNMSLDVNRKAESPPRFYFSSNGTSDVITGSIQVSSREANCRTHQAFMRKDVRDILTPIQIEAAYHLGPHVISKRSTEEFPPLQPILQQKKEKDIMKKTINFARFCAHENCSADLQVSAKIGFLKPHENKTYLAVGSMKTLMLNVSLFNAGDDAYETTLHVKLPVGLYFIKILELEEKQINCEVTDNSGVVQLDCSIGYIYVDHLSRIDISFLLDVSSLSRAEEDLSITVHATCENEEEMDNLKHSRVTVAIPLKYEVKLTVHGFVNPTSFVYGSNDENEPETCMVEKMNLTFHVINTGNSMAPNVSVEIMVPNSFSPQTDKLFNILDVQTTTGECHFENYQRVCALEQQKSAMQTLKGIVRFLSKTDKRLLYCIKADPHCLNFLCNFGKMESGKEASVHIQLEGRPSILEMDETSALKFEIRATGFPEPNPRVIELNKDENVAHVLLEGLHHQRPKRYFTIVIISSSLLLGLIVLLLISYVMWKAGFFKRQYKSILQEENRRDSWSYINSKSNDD
α4β7, sequence (P26010 20-798): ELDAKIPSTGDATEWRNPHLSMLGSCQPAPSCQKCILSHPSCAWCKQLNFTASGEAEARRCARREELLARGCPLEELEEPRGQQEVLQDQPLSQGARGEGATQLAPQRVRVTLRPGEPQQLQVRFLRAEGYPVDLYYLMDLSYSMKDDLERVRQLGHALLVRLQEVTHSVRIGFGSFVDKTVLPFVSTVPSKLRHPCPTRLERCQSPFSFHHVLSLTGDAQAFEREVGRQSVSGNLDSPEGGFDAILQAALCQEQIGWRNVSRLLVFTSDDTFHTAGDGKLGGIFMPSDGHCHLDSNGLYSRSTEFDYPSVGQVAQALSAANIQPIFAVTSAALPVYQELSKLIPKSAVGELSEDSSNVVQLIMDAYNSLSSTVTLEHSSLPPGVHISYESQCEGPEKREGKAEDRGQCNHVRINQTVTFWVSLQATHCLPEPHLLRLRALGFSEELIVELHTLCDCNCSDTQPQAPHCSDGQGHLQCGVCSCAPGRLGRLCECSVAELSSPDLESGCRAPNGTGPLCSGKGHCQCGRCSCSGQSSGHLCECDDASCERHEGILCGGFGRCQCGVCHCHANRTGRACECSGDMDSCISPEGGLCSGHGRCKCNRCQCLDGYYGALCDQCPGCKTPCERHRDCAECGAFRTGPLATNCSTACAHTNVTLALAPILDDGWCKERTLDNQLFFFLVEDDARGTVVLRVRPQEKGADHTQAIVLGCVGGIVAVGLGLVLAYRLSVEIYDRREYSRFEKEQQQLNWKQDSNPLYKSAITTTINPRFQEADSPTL

| Compound | IC50 (α4β7; [2]) [nM] | half-life at 22 μM [1, 3] [h] | further results |
| --- | --- | --- | --- |
| CC(=O)N[C@@H]1C(=O)N(C)[C@@H](CCCNC(=N)N)C(=O)N[C@@H](CO)C(=O)N[C@@H](CC(=O)O)C(=O)N[C@@H]([C@@H](C)O)C(=O)N[C@@H](CC(C)C)C(=O)N[C@H](C(=O)N[C@@H](Cc2ccc(C(C)(C)C)cc2)C(=O)N[C@@H](CCC(=O)O)CC(=O)N[C@H](CCCCNC(=O)COCC(=O)NCCCC[C@@H](NC(=O)C[C@H](CCC(=O)O)NC(=O)[C@H](Cc2ccc(C(C)(C)C)cc2)NC(=O)[C@H]2NC(=O)[C@H](CC(C)C)NC(=O)[C@H]([C@@H](C)O)NC(=O)[C@H](CC(=O)O)NC(=O)[C@H](CO)NC(=O)[C@H](CCCNC(=N)N)N(C)C(=O)[C@@H](NC(C)=O)C(C)(C)SSC2(C)C)C(N)=O)C(N)=O)C(C)(C)SSC1(C)C [compound 132] (I: Ac-[Pen][NMeR]SDTL[Pen][Phe(4-tBu)][β3hE][dK]-NH2 / II: Ac-[Pen][NMeR]SDTL[Pen][Phe(4-tBu)][β3hE][dK]-NH2; disulfide I:1-I:7, II:1-II:7; linker I:10-II:10 via Diglycolyl) | < 10 | – | Stabilty SIF t1/2, in hr ([1]; Table 3-B, alone or in parentheses after >360): 11 h; half-life at 22 μM ([1]; simulated intestinal fluid (SIF) with porcine pancreatin, > means experiment was stopped at that time and half life was not reached, read-out: Stabilty SIF t1/2): > 6 h; half-life at 22 μM ([1]; simulated intestinal fluid (SIF) with porcine pancreatin, alone or in parentheses after >360, read-out: Stabilty SIF t1/2, in hr (converted)): 10.7 h |
| CC(=O)N[C@@H]1C(=O)N(C)[C@@H](CCCNC(=N)N)C(=O)N[C@@H](CO)C(=O)N[C@@H](CC(=O)O)C(=O)N[C@@H](C(C)O)C(=O)N[C@@H](CC(C)C)C(=O)N[C@H](C(=O)N[C@@H](Cc2ccc(C(C)(C)C)cc2)C(=O)N[C@@H](CCC(=O)O)CC(=O)N[C@H](CCCCNC(=O)COCC(=O)NCCCC[C@@H](NC(=O)C[C@H](CCC(=O)O)NC(=O)[C@H](Cc2ccc(C(C)(C)C)cc2)NC(=O)[C@H]2NC(=O)[C@H](CC(C)C)NC(=O)[C@H](C(C)O)NC(=O)[C@H](CC(=O)O)NC(=O)[C@H](CO)NC(=O)[C@H](CCCNC(=N)N)N(C)C(=O)[C@@H](NC(C)=O)C(C)(C)SSC2(C)C)C(N)=O)C(N)=O)C(C)(C)SSC1(C)C (stereo partly drawn) [Peptide X, [Ac-Pen-(N-Me-Arg)-Ser-Asp-Thr-Leu-Pen-(Phe(4-tBu))-(β-homoGlu)-(D-Lys)]2-DIG] (I: Ac-[Pen][NMeR]SD[Thr(3ξ)]L[Pen][Phe(4-tBu)][β3hE][dK]-NH2 / II: Ac-[Pen][NMeR]SD[Thr(3ξ)]L[Pen][Phe(4-tBu)][β3hE][dK]-NH2; disulfide I:1-I:7, II:1-II:7; linker I:10-II:10 via Diglycolyl) | – | – | IC50 (α4β7; average, cells isolated from 4 different human PBMC donors, read-out: IC50 (nM), memory T cells, Integrin α4β7, Ligand MAdCAM-1): 1.3 nM; IC50 (α4β7; read-out: IC50 for α4β7 T cells): 1 nM |
| CC(=O)N[C@@H]1C(=O)N(C)[C@@H](CCCNC(=N)N)C(=O)N[C@@H](CO)C(=O)N[C@@H](CC(=O)O)C(=O)N[C@@H]([C@@H](C)O)C(=O)N[C@@H](CC(C)C)C(=O)N[C@H](C(=O)N[C@@H](Cc2ccc(C(C)(C)C)cc2)C(=O)N[C@@H](CCC(=O)O)CC(=O)O)C(C)(C)SSC1(C)C [compound 152] (Ac-[Pen][NMeR]SDTL[Pen][Phe(4-tBu)][β3hE]-OH; disulfide 1-7) | 25 to 50 | 2.45 | – |
| CC(=O)N[C@@H]1C(=O)N(C)[C@@H](CCCNC(=N)N)C(=O)N[C@@H](CO)C(=O)N[C@@H](CC(=O)O)C(=O)N[C@@H]([C@@H](C)O)C(=O)N[C@@H](CC(C)C)C(=O)N[C@H](C(=O)N[C@@H](Cc2c[nH]c3ccccc23)C(=O)N[C@H](CCC(=O)O)C(=O)N[C@H](CCCCNC(=O)COCC(=O)NCCCC[C@@H](NC(=O)[C@@H](CCC(=O)O)NC(=O)[C@H](Cc2c[nH]c3ccccc23)NC(=O)[C@H]2NC(=O)[C@H](CC(C)C)NC(=O)[C@H]([C@@H](C)O)NC(=O)[C@H](CC(=O)O)NC(=O)[C@H](CO)NC(=O)[C@H](CCCNC(=N)N)N(C)C(=O)[C@@H](NC(C)=O)C(C)(C)SSC2(C)C)C(N)=O)C(N)=O)C(C)(C)SSC1(C)C [compound 68] (I: Ac-[Pen][NMeR]SDTL[Pen]W[dE][dK]-NH2 / II: Ac-[Pen][NMeR]SDTL[Pen]W[dE][dK]-NH2; disulfide I:1-I:7, II:1-II:7; linker I:10-II:10 via Diglycolyl) | 100 to 500 | > 5 | – |
| CC(=O)N[C@@H]1C(=O)N(C)[C@@H](CCCNC(=N)N)C(=O)N[C@@H](CO)C(=O)N[C@@H](CC(=O)O)C(=O)N[C@@H]([C@@H](C)O)C(=O)N[C@@H](CC(C)C)C(=O)N[C@H](C(=O)N[C@@H](Cc2ccc(C(=O)O)cc2)C(=O)N[C@@H](CCC(=O)O)CC(=O)N[C@H](CCCCNC(=O)COCC(=O)NCCCC[C@@H](NC(=O)C[C@H](CCC(=O)O)NC(=O)[C@H](Cc2ccc(C(=O)O)cc2)NC(=O)[C@H]2NC(=O)[C@H](CC(C)C)NC(=O)[C@H]([C@@H](C)O)NC(=O)[C@H](CC(=O)O)NC(=O)[C@H](CO)NC(=O)[C@H](CCCNC(=N)N)N(C)C(=O)[C@@H](NC(C)=O)C(C)(C)SSC2(C)C)C(N)=O)C(N)=O)C(C)(C)SSC1(C)C [compound 130] (I: Ac-[Pen][NMeR]SDTL[Pen][Phe(4-COOH)][β3hE][dK]-NH2 / II: Ac-[Pen][NMeR]SDTL[Pen][Phe(4-COOH)][β3hE][dK]-NH2; disulfide I:1-I:7, II:1-II:7; linker I:10-II:10 via Diglycolyl) | < 10 | > 6 | half-life at 22 μM [1, 4]: 16 h |
| CC(=O)N[C@@H]1C(=O)N(C)[C@@H](CCCNC(=N)N)C(=O)N[C@@H](CO)C(=O)N[C@@H](CC(=O)O)C(=O)N[C@@H]([C@@H](C)O)C(=O)N[C@@H](CC(C)C)C(=O)N[C@H](C(=O)N[C@@H](Cc2ccc(C(=O)O)cc2)C(=O)N[C@@H](CCC(=O)O)C(=O)N[C@H](CCCCNC(=O)COCC(=O)NCCCC[C@@H](NC(=O)[C@H](CCC(=O)O)NC(=O)[C@H](Cc2ccc(C(=O)O)cc2)NC(=O)[C@H]2NC(=O)[C@H](CC(C)C)NC(=O)[C@H]([C@@H](C)O)NC(=O)[C@H](CC(=O)O)NC(=O)[C@H](CO)NC(=O)[C@H](CCCNC(=N)N)N(C)C(=O)[C@@H](NC(C)=O)C(C)(C)SSC2(C)C)C(N)=O)C(N)=O)C(C)(C)SSC1(C)C [compound 129] (I: Ac-[Pen][NMeR]SDTL[Pen][Phe(4-COOH)]E[dK]-NH2 / II: Ac-[Pen][NMeR]SDTL[Pen][Phe(4-COOH)]E[dK]-NH2; disulfide I:1-I:7, II:1-II:7; linker I:10-II:10 via Diglycolyl) | < 10 | > 6 | half-life at 22 μM [1, 4]: 13 h |
| CC(=O)N[C@@H]1C(=O)N(C)[C@@H](CCCNC(=N)N)C(=O)N[C@@H](CO)C(=O)N[C@@H](CC(=O)O)C(=O)N[C@@H]([C@@H](C)O)C(=O)N[C@@H](CC(C)C)C(=O)N[C@H](C(=O)N[C@@H](Cc2cccc3ccccc23)C(=O)N[C@@H](CCC(=O)O)CC(=O)N(C)[C@@H](CCCCNC(=O)COCC(=O)NCCCC[C@@H](C(N)=O)N(C)C(=O)C[C@H](CCC(=O)O)NC(=O)[C@H](Cc2cccc3ccccc23)NC(=O)[C@H]2NC(=O)[C@H](CC(C)C)NC(=O)[C@H]([C@@H](C)O)NC(=O)[C@H](CC(=O)O)NC(=O)[C@H](CO)NC(=O)[C@H](CCCNC(=N)N)N(C)C(=O)[C@@H](NC(C)=O)C(C)(C)SSC2(C)C)C(N)=O)C(C)(C)SSC1(C)C [compound 142] (I: Ac-[Pen][NMeR]SDTL[Pen][1Nal][β3hE][NMeK]-NH2 / II: Ac-[Pen][NMeR]SDTL[Pen][1Nal][β3hE][NMeK]-NH2; disulfide I:1-I:7, II:1-II:7; linker I:10-II:10 via Diglycolyl) | 50 to 100 | – | – |
| CC(=O)N[C@@H]1C(=O)N(C)[C@@H](CCCNC(=N)N)C(=O)N[C@@H](CO)C(=O)N[C@@H](CC(=O)O)C(=O)N[C@@H]([C@@H](C)O)C(=O)N[C@@H](CC(C)C)C(=O)N[C@H](C(=O)N[C@@H](Cc2cccc3ccccc23)C(=O)N[C@@H](CCC(=O)O)C(=O)N(C)[C@H](CCCCNC(=O)COCC(=O)NCCCC[C@H](C(N)=O)N(C)C(=O)[C@H](CCC(=O)O)NC(=O)[C@H](Cc2cccc3ccccc23)NC(=O)[C@H]2NC(=O)[C@H](CC(C)C)NC(=O)[C@H]([C@@H](C)O)NC(=O)[C@H](CC(=O)O)NC(=O)[C@H](CO)NC(=O)[C@H](CCCNC(=N)N)N(C)C(=O)[C@@H](NC(C)=O)C(C)(C)SSC2(C)C)C(N)=O)C(C)(C)SSC1(C)C [compound 44] (I: Ac-[Pen][NMeR]SDTL[Pen][1Nal]E[dNMeK]-NH2 / II: Ac-[Pen][NMeR]SDTL[Pen][1Nal]E[dNMeK]-NH2; disulfide I:1-I:7, II:1-II:7; linker I:10-II:10 via Diglycolyl) | – | > 3 | – |
